Source: ChEMBL document CHEMBL1201862, “PubChem BioAssay data set” (2004)
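48-hour exposure; five concentrations; linearly interpolated endpoints. Here, GI50 denotes the concentration required for 50% inhibition of growth.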 Active and inactive are the calls of the source. Rule as the data show it: active = GI50 up to about 1.1 µM and inactive = higher.

Tests used:
Assay in all cases: NCI tumour cell line growth inhibition, 48 h
PC-3 = system: PC-3
MDA-MB-435 = system: MDA-MB-435
LOX IMVI = system: LOX IMVI
HOP-62 = system: HOP-62
HCT-15 = system: HCT-15
RPMI-8226 = system: RPMI-8226
OVCAR-5 = system: OVCAR-5
UACC-257 = system: UACC-257
NCI/ADR-RES = system: NCI/ADR-RES
UO-31 = system: UO-31
BT-549 = system: BT-549
MDA-N = system: MDA-N
CCRF-CEM = system: CCRF-CEM
HL-60 = system: HL-60
CAKI-1 = system: CAKI-1
SK-MEL-28 = system: SK-MEL-28
M14 = system: M14
U-251 = system: U-251
IGROV-1 = system: IGROV-1
EKVX = system: EKVX

| SMILES | GI50 (PC-3) | GI50 (MDA-MB-435) | GI50 (LOX IMVI) | GI50 (HOP-62) | GI50 (HCT-15) | GI50 (RPMI-8226) | GI50 (OVCAR-5) | GI50 (UACC-257) | GI50 (NCI/ADR-RES) | GI50 (UO-31) | GI50 (BT-549) | GI50 (MDA-N) | GI50 (CCRF-CEM) | GI50 (HL-60) | GI50 (CAKI-1) | GI50 (SK-MEL-28) | GI50 (M14) | GI50 (U-251) | GI50 (IGROV-1) | GI50 (EKVX) |
| --- | --- | --- | --- | --- | --- | --- | --- | --- | --- | --- | --- | --- | --- | --- | --- | --- | --- | --- | --- | --- |
| CC12CCC(C(=O)n3c1nc1ccccc13)C(C)(C)O2 (stereo not given) | > 100 µM (inactive) | > 100 µM (inactive) | > 100 µM (inactive) | > 100 µM (inactive) | > 100 µM | > 100 µM (inactive) | > 100 µM (inactive) | > 100 µM (inactive) | > 100 µM (inactive) | 75.3 µM (inactive) | > 100 µM (inactive) | > 100 µM (inactive) | > 100 µM (inactive) | > 100 µM (inactive) | > 100 µM (inactive) | > 100 µM (inactive) | > 100 µM (inactive) | > 100 µM (inactive) | > 100 µM (inactive) | > 100 µM (inactive) |
| CC1CNC(c2ccc(CN3CCC(C4CCN(Cc5ccc(C6=NC(C)CN6)cc5)CC4)CC3)cc2)=N1 (stereo not given) | 17.7 µM (inactive) | 20.8 µM (inactive) | 22.7 µM (inactive) | 14.9 µM (inactive) | 27.5 µM | 19.5 µM (inactive) | 24.9 µM (inactive) | 24.2 µM (inactive) | 34.4 µM (inactive) | 26.5 µM (inactive) | > 100 µM (inactive) | 21.3 µM (inactive) | 13.9 µM (inactive) | 36.1 µM (inactive) | 38.8 µM (inactive) | 32.6 µM (inactive) | 20.2 µM (inactive) | 16 µM (inactive) | 37.2 µM (inactive) | 21.7 µM (inactive) |
| C[N+](C)(C)CC(=O)N/N=C/c1ccncc1 | > 100 µM (inactive) | > 100 µM (inactive) | > 100 µM (inactive) | > 100 µM (inactive) | > 100 µM | > 100 µM (inactive) | > 100 µM (inactive) | > 100 µM (inactive) | > 100 µM (inactive) | > 100 µM (inactive) | > 100 µM (inactive) | > 100 µM (inactive) | > 100 µM (inactive) | 65.6 µM (inactive) | > 100 µM (inactive) | > 100 µM (inactive) | > 100 µM (inactive) | > 100 µM (inactive) | > 100 µM (inactive) | > 100 µM (inactive) |
| CCOC(=O)C1(CC(=O)O)CCCC1=O (stereo not given) | > 100 µM (inactive) | > 100 µM (inactive) | > 100 µM (inactive) | > 100 µM (inactive) | > 100 µM | > 100 µM (inactive) | > 100 µM (inactive) | > 100 µM (inactive) | > 100 µM (inactive) | > 100 µM (inactive) | > 100 µM (inactive) | > 100 µM (inactive) | > 100 µM (inactive) | > 100 µM (inactive) | > 100 µM (inactive) | > 100 µM (inactive) | > 100 µM (inactive) | > 100 µM (inactive) | > 100 µM (inactive) | > 100 µM (inactive) |
| COC(C)(C)/C=C/c1[nH]c2ccccc2c1CC(=O)NCCc1cn(C(c2ccccc2)(c2ccccc2)c2ccccc2)cn1 | 3.44 µM (inactive) | 3.62 µM (inactive) | 4.82 µM (inactive) | 5.92 µM (inactive) | 4.25 µM | 2.39 µM (inactive) | 3.66 µM (inactive) | 4.02 µM (inactive) | 5.12 µM (inactive) | 5.77 µM (inactive) | 7.87 µM (inactive) | 4.33 µM (inactive) | 3.68 µM (inactive) | 2.92 µM (inactive) | 15.9 µM (inactive) | 9.77 µM (inactive) | 4.53 µM (inactive) | 4.45 µM (inactive) | 5.4 µM (inactive) | 3.44 µM (inactive) |
